Reference: PubChem BioAssay AID1963434 (Molecular Pharmacology Branch, DTP, NCI, 2024)

Tested on: 755483-174-R-J1-PDC complex spheroid growth, percent test/control
Experiment: Anticancer human tumor 755483-174-R-J1-PDC patient-derived rhabdomyosarcoma cell line growth inhibition [Asc]
Conditions: for IC50: curve of first compound; for viability, T/C: stronger effect = lower value
How it was run: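 Concentration series start at each agent's clinical Cmax, or at 10 microM when none is established, and drop in half-log steps; agents are applied alone or together to complex spheroids built with HUVEC and hMSC.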

[1] = second compound 0.01 µM, first compound 0.00316 µM
[2] = second compound 0.01 µM, first compound 0.01 µM
[3] = second compound 0.01 µM, first compound 0.0316 µM
[4] = second compound 0.01 µM, first compound 0.1 µM
[5] = second compound 0.0316 µM, first compound 0.00316 µM
[6] = second compound 0.0316 µM, first compound 0.01 µM
[7] = second compound 0.0316 µM, first compound 0.0316 µM
[8] = second compound 0.0316 µM, first compound 0.1 µM
[9] = second compound 0.1 µM, first compound 0.00316 µM
[10] = second compound 0.1 µM, first compound 0.01 µM
[11] = second compound 0.1 µM, first compound 0.0316 µM
[12] = second compound 0.1 µM, first compound 0.1 µM
[13] = second compound 0.316 µM, first compound 0.00316 µM
[14] = second compound 0.316 µM, first compound 0.01 µM
[15] = second compound 0.316 µM, first compound 0.0316 µM
[16] = second compound 0.316 µM, first compound 0.1 µM
[17] = second compound 1 µM, first compound 0.00316 µM
[18] = second compound 1 µM, first compound 0.01 µM
[19] = second compound 1 µM, first compound 0.0316 µM
[20] = second compound 1 µM, first compound 0.1 µM
[21] = second compound 0.01 µM, first compound 0.316 µM
[22] = second compound 0.01 µM, first compound 1 µM
[23] = second compound 0.0316 µM, first compound 0.316 µM
[24] = second compound 0.0316 µM, first compound 1 µM
[25] = second compound 0.1 µM, first compound 0.316 µM
[26] = second compound 0.1 µM, first compound 1 µM
[27] = second compound 0.316 µM, first compound 0.316 µM
[28] = second compound 0.316 µM, first compound 1 µM
[29] = second compound 1 µM, first compound 0.316 µM
[30] = second compound 1 µM, first compound 1 µM
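Note: spheroids exposed to compounds for seven days before readout.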

With `Cc1nc(N2CCC3(CC2)COC(C)C3N)c(CO)nc1Sc1ccnc(N)c1Cl` (stereo not given) + CCN1C(C(=O)NC23CCC(C(=O)O)(CC2)CC3)C(c2cccc(Cl)c2F)C2(C(=O)Nc3cc(Cl)ccc32)C12CCCCC2 the IC50 (second compound 0.03 µM) was 442 nM, the IC50 (second compound 0.0949 µM) was 371 nM and the IC50 (second compound 0.3 µM) was 387 nM. For the same compound, the IC50 (second compound 0.949 µM) was 232 nM, the IC50 (second compound 3 µM) was 315 nM and the viability, T/C (second compound 0.03 µM, first compound 0.00949 µM) was 111%. The viability, T/C (second compound 0.03 µM, first compound 0.03 µM) was 93.4%, the viability, T/C (second compound 0.03 µM, first compound 0.0949 µM) was 80.7% and the viability, T/C (second compound 0.03 µM, first compound 0.3 µM) was 58.6%. For the same compound, the viability, T/C (second compound 0.03 µM, first compound 0.949 µM) was 33.4%, the viability, T/C (second compound 0.03 µM, first compound 3 µM) was 19.6% and the viability, T/C (second compound 0.0949 µM, first compound 0.00949 µM) was 113%. For the same compound, the viability, T/C (second compound 0.0949 µM, first compound 0.03 µM) was 106%, the viability, T/C (second compound 0.0949 µM, first compound 0.0949 µM) was 106% and the viability, T/C (second compound 0.0949 µM, first compound 0.3 µM) was 52.9%. The viability, T/C (second compound 0.0949 µM, first compound 0.949 µM) was 39.2%, the viability, T/C (second compound 0.0949 µM, first compound 3 µM) was 21.1% and the viability, T/C (second compound 0.3 µM, first compound 0.00949 µM) was 89.5%. For the same compound, the viability, T/C (second compound 0.3 µM, first compound 0.03 µM) was 87.6%, the viability, T/C (second compound 0.3 µM, first compound 0.0949 µM) was 62.1% and the viability, T/C (second compound 0.3 µM, first compound 0.3 µM) was 51.6%. The viability, T/C (second compound 0.3 µM, first compound 0.949 µM) was 42.5%, the viability, T/C (second compound 0.3 µM, first compound 3 µM) was 18.5% and the viability, T/C (second compound 0.949 µM, first compound 0.00949 µM) was 105%. For the same compound, the viability, T/C (second compound 0.949 µM, first compound 0.03 µM) was 82.9%, the viability, T/C (second compound 0.949 µM, first compound 0.0949 µM) was 84.1% and the viability, T/C (second compound 0.949 µM, first compound 0.3 µM) was 40.1%. For the same compound, the viability, T/C (second compound 0.949 µM, first compound 0.949 µM) was 24.9%, the viability, T/C (second compound 0.949 µM, first compound 3 µM) was 27.1% and the viability, T/C (second compound 3 µM, first compound 0.00949 µM) was 111%. It also gave a viability, T/C (second compound 3 µM, first compound 0.03 µM) of 82.9%, a viability, T/C (second compound 3 µM, first compound 0.0949 µM) of 71.9% and a viability, T/C (second compound 3 µM, first compound 0.3 µM) of 50.1%. For the same compound, the viability, T/C (second compound 3 µM, first compound 0.949 µM) was 34.3% and the viability, T/C (second compound 3 µM, first compound 3 µM) was 21.1%.
With `Cn1ncnc1[C@H]1c2n[nH]c(=O)c3cc(F)cc(c23)N[C@@H]1c1ccc(F)cc1` + CNC(C)C(=O)NC1CN(S(=O)(=O)c2cccc(S(=O)(=O)N3CCC4CCC(C(=O)NC(c5ccccc5)c5ccccc5)N4C(=O)C(NC(=O)C(C)NC)C3)c2)CCC2CCC(C(=O)NC(c3ccccc3)c3ccccc3)N2C1=O the IC50 (second compound 0.01 µM) was < 0.316 nM, the IC50 (second compound 0.0316 µM) was < 0.316 nM and the IC50 (second compound 0.1 µM) was < 0.316 nM. For the same compound, the IC50 (second compound 0.316 µM) was < 0.316 nM, the IC50 (second compound 1 µM) was < 0.316 nM and the viability, T/C (second compound 0.01 µM, first compound 0.000316 µM) was 39.3%. For the same compound, the viability, T/C (second compound 0.01 µM, first compound 0.001 µM) was 45.2%, the viability, T/C [1] was 45.5% and the viability, T/C [2] was 30.9%. It also gave a viability, T/C [3] of 26.4%, a viability, T/C [4] of 18.1% and a viability, T/C (second compound 0.0316 µM, first compound 0.000316 µM) of 36.2%. The viability, T/C (second compound 0.0316 µM, first compound 0.001 µM) was 42.9%, the viability, T/C [5] was 33.4% and the viability, T/C [6] was 16.2%. The viability, T/C [7] was 18.1%, the viability, T/C [8] was 12.7% and the viability, T/C (second compound 0.1 µM, first compound 0.000316 µM) was 26.2%. The viability, T/C (second compound 0.1 µM, first compound 0.001 µM) was 33.2%, the viability, T/C [9] was 25.4% and the viability, T/C [10] was 14.4%. It also gave a viability, T/C [11] of 13.7%, a viability, T/C [12] of 9.96% and a viability, T/C (second compound 0.316 µM, first compound 0.000316 µM) of 31.5%. For the same compound, the viability, T/C (second compound 0.316 µM, first compound 0.001 µM) was 23.6%, the viability, T/C [13] was 17.2% and the viability, T/C [14] was 14.7%. The viability, T/C [15] was 6.84%, the viability, T/C [16] was 9.04% and the viability, T/C (second compound 1 µM, first compound 0.000316 µM) was 13.7%. It also gave a viability, T/C (second compound 1 µM, first compound 0.001 µM) of 19.7%, a viability, T/C [17] of 9.69% and a viability, T/C [18] of 9.82%. The viability, T/C [19] was 9.01% and the viability, T/C [20] was 7.46%.
In the case of `O=C(c1cc(Cc2n[nH]c(=O)c3ccccc23)ccc1F)N1CCN(C(=O)C2CC2)CC1` + CNC(C)C(=O)NC1CN(S(=O)(=O)c2cccc(S(=O)(=O)N3CCC4CCC(C(=O)NC(c5ccccc5)c5ccccc5)N4C(=O)C(NC(=O)C(C)NC)C3)c2)CCC2CCC(C(=O)NC(c3ccccc3)c3ccccc3)N2C1=O, the IC50 (second compound 0.01 µM) is reported as < 31.6 nM, the IC50 (second compound 0.0316 µM) is reported as < 31.6 nM and the IC50 (second compound 0.1 µM) is reported as < 31.6 nM. The IC50 (second compound 0.316 µM) was < 31.6 nM, the IC50 (second compound 1 µM) was < 31.6 nM and the viability, T/C [3] was 41.7%. For the same compound, the viability, T/C [4] was 41.1%, the viability, T/C [21] was 34.5% and the viability, T/C [22] was 27.5%. For the same compound, the viability, T/C (second compound 0.01 µM, first compound 3.16 µM) was 24.1%, the viability, T/C (second compound 0.01 µM, first compound 10 µM) was 12% and the viability, T/C [7] was 35.3%. It also gave a viability, T/C [8] of 34.3%, a viability, T/C [23] of 24.3% and a viability, T/C [24] of 21.3%. The viability, T/C (second compound 0.0316 µM, first compound 3.16 µM) was 17.9%, the viability, T/C (second compound 0.0316 µM, first compound 10 µM) was 9.95% and the viability, T/C [11] was 27.2%. For the same compound, the viability, T/C [12] was 40.2%, the viability, T/C [25] was 28.5% and the viability, T/C [26] was 23.6%. For the same compound, the viability, T/C (second compound 0.1 µM, first compound 3.16 µM) was 15.5%, the viability, T/C (second compound 0.1 µM, first compound 10 µM) was 7.57% and the viability, T/C [15] was 29.5%. It also gave a viability, T/C [16] of 40.1%, a viability, T/C [27] of 23.3% and a viability, T/C [28] of 15.7%. For the same compound, the viability, T/C (second compound 0.316 µM, first compound 3.16 µM) was 8.99%, the viability, T/C (second compound 0.316 µM, first compound 10 µM) was 3.81% and the viability, T/C [19] was 16.7%. It also gave a viability, T/C [20] of 17.2%, a viability, T/C [29] of 6.88% and a viability, T/C [30] of 6.73%. It also gave a viability, T/C (second compound 1 µM, first compound 3.16 µM) of 8.78% and a viability, T/C (second compound 1 µM, first compound 10 µM) of 3.7%.
For `O=C(c1ccc(F)c(F)c1Nc1ccc(I)cc1F)N1CC(O)([C@@H]2CCCCN2)C1` + CNC(C)C(=O)NC1CN(S(=O)(=O)c2cccc(S(=O)(=O)N3CCC4CCC(C(=O)NC(c5ccccc5)c5ccccc5)N4C(=O)C(NC(=O)C(C)NC)C3)c2)CCC2CCC(C(=O)NC(c3ccccc3)c3ccccc3)N2C1=O, the IC50 (second compound 0.01 µM) was 92.3 nM, the IC50 (second compound 0.0316 µM) was 27.7 nM and the IC50 (second compound 0.1 µM) was < 3.16 nM. For the same compound, the IC50 (second compound 0.316 µM) was < 3.16 nM, the IC50 (second compound 1 µM) was < 3.16 nM and the viability, T/C [1] was 49.5%. It also gave a viability, T/C [2] of 56.7%, a viability, T/C [3] of 51.5% and a viability, T/C [4] of 49.9%. For the same compound, the viability, T/C [21] was 29.4%, the viability, T/C [22] was 23.4% and the viability, T/C [5] was 56.5%. The viability, T/C [6] was 62.9%, the viability, T/C [7] was 36.2% and the viability, T/C [8] was 47.8%. It also gave a viability, T/C [23] of 41.7%, a viability, T/C [24] of 25.1% and a viability, T/C [9] of 38.5%. It also gave a viability, T/C [10] of 44.7%, a viability, T/C [11] of 38.6% and a viability, T/C [12] of 40.3%. The viability, T/C [25] was 23.1%, the viability, T/C [26] was 8.23% and the viability, T/C [13] was 35%. The viability, T/C [14] was 25.6%, the viability, T/C [15] was 56% and the viability, T/C [16] was 31.4%. For the same compound, the viability, T/C [27] was 20.5%, the viability, T/C [28] was 11.3% and the viability, T/C [17] was 23.6%. For the same compound, the viability, T/C [18] was 24.4%, the viability, T/C [19] was 25.8% and the viability, T/C [20] was 30.4%. The viability, T/C [29] was 17.1% and the viability, T/C [30] was 4.97%.
